The values that follow come from US10730863B2, “Bridged bicyclic compounds as farnesoid X receptor modulators” (BRISTOL-MYERS SQUIBB COMPANY, priority 2017, dated 2020).

Experiment [1] concerns Cypa7a1, Ffg15. Briefly: Mouse in vivo (Cyp7a1 / Fgf15 response). Conditions: 3 mg/kg, @ 6 h.
For experiment [2], the target named is FXR (Homo sapiens (Human), UniProt Q96RI1). Briefly: FXR EC50 (FXR agonist activity reported with each example). It is filed as cell-based.
For experiment [3] the following is noted: 72-week trial, patients with NASH, liver biopsies; cited from earlier work.
The conditions of experiment [4]: 6-week trial, T2DM patients with NAFLD; cited from earlier work.

Chain of FXR (Q96RI1 262-486): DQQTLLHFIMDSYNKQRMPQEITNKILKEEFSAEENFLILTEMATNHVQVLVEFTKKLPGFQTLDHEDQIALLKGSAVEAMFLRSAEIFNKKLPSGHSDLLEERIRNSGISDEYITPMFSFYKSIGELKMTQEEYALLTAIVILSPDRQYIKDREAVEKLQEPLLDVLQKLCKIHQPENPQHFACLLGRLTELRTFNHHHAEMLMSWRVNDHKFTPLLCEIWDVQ

For `CN1CCN(c2nc(C(=O)O)cc3ccc(C#CC45CCC(OCc6c(-c7c(Cl)cncc7Cl)noc6C6CC6)(CC4)CC5)cc23)CC1` [Example 519, 7-((4-((5-cyclopropyl-3-(3,5-dichloropyridin-4-yl)isoxazol-4-yl)methoxy)bicyclo[2.2.2]octan-1-yl)ethynyl)-1-(4-methylpiperazin-1-yl)isoquinoline-3-carboxylic acid], in experiment [1], the Cypa7a1 was −92% and the Ffg15 result was “+1.4 ×”. The same compound came in with a concentration for a half-maximal effect (EC50) in experiment [2] of 28 nM.
As to `CC[C@H]1[C@@H](O)[C@@H]2[C@H](CC[C@]3(C)[C@@H]([C@H](C)CCC(=O)O)CC[C@@H]23)[C@@]2(C)CC[C@@H](O)C[C@@H]12` [OCA, obeticholic acid], the “hepatic steatosis, lobular inflammation, hepatocyte ballooning, and fibrosis” value in experiment [3] is on record as “statistically significantly improved”. Besides, in experiment [4], the body weight result was “reduced” and the insulin sensitivity result is “statistically significantly improved”.
